Like-named read-outs stand apart in the source and are kept apart here.
Columns and labels:
[1] = tested on: ZIKV-RLuc; assay: microbe, parasite or virus in culture; assay type: cell-based, Zika virus
[2] = tested on: CHIKV; assay: microbe, parasite or virus in culture; assay type: cell-based; settings: Vero 76; read-out: EC50-CPE CHIKV
[3] = target: ZIKV NS4B (Zika virus, UniProt A0A142I5B9); assay: biochemical; assay type: binding
[4] = tested on: ZIKV PLCal; assay: CPE-based anti-ZIKV concentration-response assay (96-well); assay type: cell-based, Zika virus; settings: Zika virus
[5] = tested on: ZIKV PLCal; assay: Virus yield (titer) reduction assay in Huh 7.5.1 cells; assay type: cell-based, Zika virus; settings: 1 µM
[6] = tested on: ZIKV-RLuc NS4B V241L; assay type: cell-based, Zika virus
[7] = tested on: ZIKV-RLuc NS4B A245T; assay type: cell-based, Zika virus
[8] = tested on: ZIKV-RLuc NS4B V248G; assay type: cell-based, Zika virus
[9] = in vitro; settings: African green monkey, CC50 Vero76
[10] = target: T1, DENV NS4B (Dengue virus type 3, UniProt P27915); assay: 19F-NMR binding, DENV NS4B; settings: compound 50 µM, NS4B 5 µM
T1 construct: Overlaid ^19F-NMR spectra of JNJ-1802 in absence (blue) and presence of DENV NS4B (red)

[11] = wild type ZIKV-RLuc, Vero 76, MOI 0.1, three days, read-out: EC50 ZIKV-RLuc
[12] = 72 h, Vero 76, MOI 0.05, 3-day incubation, CellTiter-Glo, read-out: EC50-CPE ZIKV-PLCal
[13] = Zika virus, Vero 76, 72 h, wild type ZIKV-RLuc, Vero 76, MOI 0.1, three days, read-out: EC50 ZIKV-RLuc
[14] = Zika virus, Fig 7, read-out: RLuc EC50

Question: Which EC50 [1, 11] does the source give for `COc1ccc(C(C)NC(=O)c2ccc(C(C)(C)C)cc2)cc1` (racemic) [MWAC-3489] here?
Answer: 1.22 ± 0.86 µM

Question: And the EC50 [2]?
Answer: > 50 µM

Question: Which results are given for `CC(C)(C)c1ccc(C(=O)N2C[C@H](C(=O)O)[C@@H](c3cccc(F)c3)C2)cc1` (relative stereo) [MWAC-3533]?
Answer: EC50 ([1]; Zika virus, Vero 76, 72 h, read-out: EC50 ZIKV-RLuc): ~16 µM; Kd [3]: ~35 µM; 19F-NMR signal change with ZIKV NS4B ([3]; compound 50 µM): shifted by the presence of ZIKV NS4B in a concentration-dependent manner

Question: Which results are given for `CC(C)(C)c1ccc(C(=O)N[C@@H]2C[C@H]3CC[C@@H]2C3)cc1` (relative stereo) [MWAC-3989, N-((exo)-bicyclo[2.2.1]heptan-2-yl)-4-(tert-butyl)benzamide]?
Answer: EC50 [4, 12]: 0.46 ± 0.1 µM; EC50 ([4]; Fig 7, read-out: CPE EC50): 0.34 µM; EC50 [1, 13]: 0.07 ± 0.007 µM; EC50 [1, 14]: 0.115 µM; EC50 [1, 11]: 0.13 ± 0.068 µM; VYR: Virus Yield reduction (Log 10) [5]: -0.18 ± 0.14 Log 10; EC50 [6]: 10.6 ± 2.04 µM; EC50 [7]: 0.45 ± 0.05 µM; EC50 [8]: 4 ± 0.76 µM; CC50 [9]: > 50 µM

Question: With `CC(C)(C)c1ccc(C(=O)N[C@H]2C[C@H]3CC[C@@H]2C3)cc1` (relative stereo) [MWAC-3992, N-((endo)-bicyclo[2.2.1]heptan-2-yl)-4-(tert-butyl)benzamide] as the compound, how does the EC50 ([4]; Fig 7, read-out: CPE EC50) read?
Answer: 0.94 µM

Question: And the EC50 [1, 13]?
Answer: 0.34 ± 0.018 µM

Question: What about the EC50 [1, 14] of the same compound?
Answer: 0.58 µM

Question: What about the “VYR: Virus Yield reduction (Log 10)” value [5] of the same compound?
Answer: -1.20 ± 0.09 Log 10

Question: And the EC50 [6]?
Answer: 27.5 µM

Question: And the EC50 [7]?
Answer: 2.77 ± 0.31 µM

Question: What about the EC50 [8] of the same compound?
Answer: 16.8 ± 2.54 µM

Question: What about the CC50 [9] of the same compound?
Answer: 63 µM

Question: With `COc1cc(N[C@H](C(=O)c2c[nH]c3ccc(OC(F)(F)F)cc23)c2ccc(Cl)cc2OC)cc(S(C)(=O)=O)c1` [JNJ-1802] as the compound, how does the “19F-NMR spectrum change with DENV NS4B” value [10] read?
Answer: a chemical shift perturbation and significant line broadening was seen

Question: Which results are given for `CC(C)(C)c1ccc(C(=O)NC2CCS(=O)(=O)C2)cc1` (centres unmarked) [MWAC-3506]?
Answer: EC50 [4, 12]: > 50 µM; EC50 [1, 13]: > 50 µM; CC50 [9]: > 50 µM

Question: With `CC(C)(C)c1ccc(C(=O)NC2CC3CCC2C3)cc1` (centres unmarked) [MWAC-3508] as the compound, how does the EC50 ([4]; Fig 7, read-out: CPE EC50) read?
Answer: 0.36 µM

Question: And the EC50 [1, 13]?
Answer: 0.11 ± 0.002 µM

Question: What about the EC50 [1, 14] of the same compound?
Answer: 0.15 µM

Question: And the “VYR: Virus Yield reduction (Log 10)” value [5]?
Answer: -0.93 ± 0.07 Log 10

Question: What about the EC50 [6] of the same compound?
Answer: 13.2 ± 1.87 µM

Question: And the EC50 [7]?
Answer: 0.81 ± 0.11 µM

Question: And the EC50 [8]?
Answer: 4.37 ± 0.37 µM

Question: What about the CC50 [9] of the same compound?
Answer: > 50 µM

Question: What does the source list for `CC(C)(C)c1ccc(C(=O)NC2CCOC2)cc1` (centres unmarked) [MWAC-3509]?
Answer: EC50 [4, 12]: 18 µM; EC50 [1, 13]: 6.1 µM; CC50 [9]: > 50 µM

Question: Which EC50 [4, 12] does the source give for `CC(NC(=O)c1ccc(C(C)(C)C)cc1)c1ccncc1` (centres unmarked) [MWAC-3510] here?
Answer: > 50 µM

Question: And the EC50 [1, 13]?
Answer: 15 µM

Question: What about the CC50 [9] of the same compound?
Answer: > 48 µM

Question: Which results are given for `CC(C)(C)c1ccc(C(=O)NC2CCN(Cc3ccccc3)CC2)cc1` [MWAC-3512]?
Answer: EC50 [4, 12]: 44 µM; EC50 [1, 13]: 7.4 µM; CC50 [9]: 58 µM

Reference: PMC13065080, “Discovery of a potent anti-Zika virus benzamide series targeting the viral protein NS4B” (PLOS Pathogens, 2026)
